Test [1] has as its target T1, Cyclin-dependent kinase 4 (Homo sapiens, UniProt P11802).
Test [2] has as its target T2, Cyclin-dependent kinase 6 (Homo sapiens, UniProt Q00534).
The target of test [3] is Cyclin-dependent kinase 5 (Homo sapiens, UniProt Q00535).
For test [4], the target named is T3, Cyclin-dependent kinase 7 (Homo sapiens, UniProt P50613).
Test [5] concerns the target T1, Cyclin-dependent kinase 4. This is another data set of the same source.
For test [6], the target named is T4, Cyclin-dependent kinase 2 (Homo sapiens, UniProt P24941).
Test [7] addresses T5, Cyclin-dependent kinase 9 (Homo sapiens, UniProt P50750).
For test [8], the target named is Cyclin-dependent kinase 1 (Homo sapiens, UniProt P06493).
Chain of Cyclin-dependent kinase 1 (P06493 whole entry): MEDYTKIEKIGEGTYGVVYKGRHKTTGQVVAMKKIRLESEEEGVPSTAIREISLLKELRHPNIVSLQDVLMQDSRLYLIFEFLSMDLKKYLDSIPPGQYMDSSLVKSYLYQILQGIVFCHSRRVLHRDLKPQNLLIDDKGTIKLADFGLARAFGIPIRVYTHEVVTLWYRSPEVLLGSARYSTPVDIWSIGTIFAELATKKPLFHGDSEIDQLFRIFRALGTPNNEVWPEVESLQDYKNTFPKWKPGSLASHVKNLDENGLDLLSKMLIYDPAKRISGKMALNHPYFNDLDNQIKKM
Test [9] addresses T2, Cyclin-dependent kinase 6. This is another data set of the same source.
In test [10] the target is T1, Cyclin-dependent kinase 4. Description: Binding affinity to CDK4 (unknown origin) assessed as inhibition constant.
Test [11] deals with T4, Cyclin-dependent kinase 2. Description: Binding affinity to CDK2 (unknown origin) extracted from insect cells assessed as inhibition constant. The test is classed as cell-free, Insect cell.
Test [12] concerns the target T2, Cyclin-dependent kinase 6. Description: Binding affinity to CDK6 (unknown origin) assessed as inhibition constant.
Test [13] has as its target T5, Cyclin-dependent kinase 9. Description: Binding affinity to CDK9 (unknown origin) assessed as inhibition constant.
Test [14] addresses T3, Cyclin-dependent kinase 7. As to the kind of experiment: biochemical.
A further test addresses CDK12/Cyclin K (Homo sapiens, UniProt Q9NYV4).
Test [15] deals with T5, Cyclin-dependent kinase 9. This is another data set of the same source.
Test [16] has as its target T4, Cyclin-dependent kinase 2. This is another data set of the same source.
Test [17] has as its target Cyclin-dependent kinase 13 (Homo sapiens, UniProt Q14004).
The target in test [18] is Cyclin-dependent kinase 13/Cyclin-K (Homo sapiens, UniProt Q14004).

pEC50, pIC50, pKd, pKi: −log10 of the molar value.

T1 sequence (P11802 whole entry): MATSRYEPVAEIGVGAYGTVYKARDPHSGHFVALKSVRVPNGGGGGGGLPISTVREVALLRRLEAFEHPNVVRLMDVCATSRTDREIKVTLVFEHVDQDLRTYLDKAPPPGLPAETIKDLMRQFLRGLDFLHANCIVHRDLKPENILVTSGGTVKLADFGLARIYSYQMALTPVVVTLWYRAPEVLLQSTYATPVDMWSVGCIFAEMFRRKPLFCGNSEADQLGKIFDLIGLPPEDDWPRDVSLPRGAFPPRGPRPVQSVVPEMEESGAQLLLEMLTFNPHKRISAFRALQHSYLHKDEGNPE
T2 sequence (Q00534 whole entry): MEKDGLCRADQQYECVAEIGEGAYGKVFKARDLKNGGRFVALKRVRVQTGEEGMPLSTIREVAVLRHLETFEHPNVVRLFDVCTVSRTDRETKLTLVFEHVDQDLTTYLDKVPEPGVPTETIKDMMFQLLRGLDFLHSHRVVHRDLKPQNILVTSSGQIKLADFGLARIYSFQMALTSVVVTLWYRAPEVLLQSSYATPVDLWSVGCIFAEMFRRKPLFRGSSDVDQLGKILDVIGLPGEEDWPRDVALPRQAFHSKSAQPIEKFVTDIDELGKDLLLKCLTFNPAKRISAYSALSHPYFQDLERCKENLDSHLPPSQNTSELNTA
T5 sequence (P50750 whole entry): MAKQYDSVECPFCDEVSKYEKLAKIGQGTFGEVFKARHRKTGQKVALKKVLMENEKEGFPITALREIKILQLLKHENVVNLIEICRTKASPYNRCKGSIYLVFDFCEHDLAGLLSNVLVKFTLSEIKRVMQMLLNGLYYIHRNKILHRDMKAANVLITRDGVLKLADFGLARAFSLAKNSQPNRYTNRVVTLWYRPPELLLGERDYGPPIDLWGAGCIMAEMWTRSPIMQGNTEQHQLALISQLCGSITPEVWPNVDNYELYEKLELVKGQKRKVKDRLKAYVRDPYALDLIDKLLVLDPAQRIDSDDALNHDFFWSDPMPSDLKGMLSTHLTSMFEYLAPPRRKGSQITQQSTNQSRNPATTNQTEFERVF
Chain of CDK12/Cyclin K (O75909 whole entry): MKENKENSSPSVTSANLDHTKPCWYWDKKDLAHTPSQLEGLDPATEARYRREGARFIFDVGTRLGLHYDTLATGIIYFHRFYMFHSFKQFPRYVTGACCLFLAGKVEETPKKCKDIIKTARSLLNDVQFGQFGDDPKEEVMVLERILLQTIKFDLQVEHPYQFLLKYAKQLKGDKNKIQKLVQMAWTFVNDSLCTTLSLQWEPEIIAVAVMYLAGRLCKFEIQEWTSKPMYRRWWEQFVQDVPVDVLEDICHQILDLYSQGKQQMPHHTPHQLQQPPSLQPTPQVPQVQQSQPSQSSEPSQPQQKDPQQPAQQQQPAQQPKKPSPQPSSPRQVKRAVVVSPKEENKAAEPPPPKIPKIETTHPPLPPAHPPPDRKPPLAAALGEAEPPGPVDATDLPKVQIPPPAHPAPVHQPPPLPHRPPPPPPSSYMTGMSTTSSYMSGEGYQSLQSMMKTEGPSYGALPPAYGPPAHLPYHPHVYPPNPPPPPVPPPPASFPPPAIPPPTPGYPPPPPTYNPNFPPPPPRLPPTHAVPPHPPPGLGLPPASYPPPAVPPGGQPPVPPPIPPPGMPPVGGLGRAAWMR
Chain of CDK12/Cyclin K (Q9NYV4 whole entry): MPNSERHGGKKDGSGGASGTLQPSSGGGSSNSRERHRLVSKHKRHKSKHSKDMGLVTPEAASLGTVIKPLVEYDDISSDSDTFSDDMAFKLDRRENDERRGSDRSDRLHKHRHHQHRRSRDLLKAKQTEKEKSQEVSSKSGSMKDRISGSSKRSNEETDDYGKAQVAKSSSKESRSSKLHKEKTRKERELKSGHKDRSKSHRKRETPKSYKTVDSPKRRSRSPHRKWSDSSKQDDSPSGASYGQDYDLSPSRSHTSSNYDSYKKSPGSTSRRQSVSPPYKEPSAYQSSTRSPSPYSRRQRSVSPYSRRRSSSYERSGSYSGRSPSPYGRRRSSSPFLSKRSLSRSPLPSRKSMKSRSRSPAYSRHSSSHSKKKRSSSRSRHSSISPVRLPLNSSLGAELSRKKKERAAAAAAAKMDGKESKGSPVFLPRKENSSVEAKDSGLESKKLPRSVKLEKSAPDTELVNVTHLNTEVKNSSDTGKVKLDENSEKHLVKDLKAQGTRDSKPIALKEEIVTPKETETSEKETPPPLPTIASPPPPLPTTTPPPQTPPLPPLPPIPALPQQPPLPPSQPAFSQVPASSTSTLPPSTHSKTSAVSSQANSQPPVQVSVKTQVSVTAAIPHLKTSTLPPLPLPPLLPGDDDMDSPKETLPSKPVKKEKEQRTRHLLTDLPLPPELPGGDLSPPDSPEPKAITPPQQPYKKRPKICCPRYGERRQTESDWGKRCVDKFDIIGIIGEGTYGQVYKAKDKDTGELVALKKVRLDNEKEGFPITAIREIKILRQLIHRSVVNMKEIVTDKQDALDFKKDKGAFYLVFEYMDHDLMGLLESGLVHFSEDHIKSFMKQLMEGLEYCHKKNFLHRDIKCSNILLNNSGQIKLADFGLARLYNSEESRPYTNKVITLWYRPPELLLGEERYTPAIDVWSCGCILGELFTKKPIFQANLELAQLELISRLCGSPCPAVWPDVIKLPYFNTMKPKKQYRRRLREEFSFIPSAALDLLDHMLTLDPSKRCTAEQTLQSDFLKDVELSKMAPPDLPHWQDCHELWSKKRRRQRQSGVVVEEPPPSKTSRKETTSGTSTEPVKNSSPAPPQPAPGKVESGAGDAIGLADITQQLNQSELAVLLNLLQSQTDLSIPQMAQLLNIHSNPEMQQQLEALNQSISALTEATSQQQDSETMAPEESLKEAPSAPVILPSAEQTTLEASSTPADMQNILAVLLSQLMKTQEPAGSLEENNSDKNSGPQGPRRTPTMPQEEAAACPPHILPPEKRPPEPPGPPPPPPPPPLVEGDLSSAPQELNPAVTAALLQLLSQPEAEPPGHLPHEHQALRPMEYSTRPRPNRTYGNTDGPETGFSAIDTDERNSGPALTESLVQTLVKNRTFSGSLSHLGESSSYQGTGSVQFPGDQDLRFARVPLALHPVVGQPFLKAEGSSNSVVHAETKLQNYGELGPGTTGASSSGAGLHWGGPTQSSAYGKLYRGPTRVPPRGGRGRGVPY
T3 sequence (P50613 whole entry): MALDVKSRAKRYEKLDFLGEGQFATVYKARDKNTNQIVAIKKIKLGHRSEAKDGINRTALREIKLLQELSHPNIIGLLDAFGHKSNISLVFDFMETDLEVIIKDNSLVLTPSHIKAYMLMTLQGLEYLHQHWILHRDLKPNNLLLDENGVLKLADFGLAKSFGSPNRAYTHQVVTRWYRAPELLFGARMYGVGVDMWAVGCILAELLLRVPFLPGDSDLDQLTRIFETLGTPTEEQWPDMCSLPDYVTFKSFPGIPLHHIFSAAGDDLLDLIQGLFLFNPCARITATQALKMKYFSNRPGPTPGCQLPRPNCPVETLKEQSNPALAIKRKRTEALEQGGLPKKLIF
Chain of Cyclin-dependent kinase 5 (Q00535 whole entry): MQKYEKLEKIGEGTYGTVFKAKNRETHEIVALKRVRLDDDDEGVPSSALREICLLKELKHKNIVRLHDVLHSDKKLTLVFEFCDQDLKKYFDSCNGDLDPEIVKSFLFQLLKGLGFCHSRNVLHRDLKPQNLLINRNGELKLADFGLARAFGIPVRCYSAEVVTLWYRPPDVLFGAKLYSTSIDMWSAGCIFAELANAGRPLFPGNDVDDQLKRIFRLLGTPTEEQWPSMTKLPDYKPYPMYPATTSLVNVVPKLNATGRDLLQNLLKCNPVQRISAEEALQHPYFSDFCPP

For `CC(C)c1cnn2c(NCc3ccccc3)cc(NC[C@H]3CCNC[C@@H]3O)nc12` [CT-7001], the negative-log IC50 (pIC50) in test [1], in test [2] and in test [3] was under 5.03 in each case.
Take `CN(C)C/C=C/C(=O)Nc1ccc(C(=O)N[C@@]2(C)CCC[C@@H](Nc3ncc(Cl)c(-c4c[nH]c5ccccc45)n3)C2)nc1`: in [4], the pIC50 (commonly the IC50 on a negative log10 scale, so that one unit is a factor of ten) is 7.10.
With `Cn1cc(-n2cnc3c(NCc4nc5cc(Cl)c(Cl)cc5[nH]4)nc(N4CCOCC4)nc32)cn1`, the pIC50 in test [5] is under 5.00; in test [6], under 5.00; in test [8], over 5.00. Also, the negative logarithm of the Kd (pKd) in test [7] and in [9] was under 5.00 throughout.
Turning to `CC(=O)c1c(C)c2cnc(NC3CCN(S(C)(=O)=O)CC3)nc2n(C2CCCC2)c1=O`, the pKi (in general, the negative decadic logarithm of the Ki, by convention in mol/L) is 9.70 in test [10], 8.23 in [11], 9.70 in test [12] and 8.02 in test [13].
Consider `Clc1cnc(N[C@H]2CCCNC2)nc1-c1c[nH]c2ccccc12`, for which, in [14], the pIC50 is 9.48.
`CC(C)n1cnc2c(NCc3nc4cc(Cl)c(Cl)cc4[nH]3)nc(N3CCOCC3)nc21`: on CDK12/Cyclin K, the negative-log EC50 (pEC50) (in general, the negative decadic logarithm of the EC50, by convention in mol/L) is 8.05.
Still for that read-out and setting: the result for `CC(C)c1nn(-c2c(Cl)cccc2Cl)c2nc(Cc3ccc(OCCO)cc3)[nH]c(=O)c12` reads 7.92.
In test [15], `N[C@H]1CCN(c2c3c(nc4ccc(-c5ccnc(NC(=O)C6CC6)c5)cc24)CCCC3)C1` showed a pIC50 of 8.70.
As to `N[C@H]1CCN(c2c3c(nc4ccc(-c5ccncc5)cc24)CCCC3)C1`, the pIC50 in test [15] is 8.10; in [16], under 6.30.
Consider `CN(C)C/C=C/C(=O)Nc1ccc(C(=O)Nc2cccc(Nc3ncc(Cl)c(-c4c[nH]c5ccccc45)n3)c2)cc1`, for which, in test [17], the pIC50 is 6.21.
In test [18], `CN(C)C/C=C/C(=O)Nc1ccc(C(=O)N2CCC[C@@H](Nc3ncc(Cl)c(-c4c[nH]c5ccccc45)n3)C2)cc1` had a negative logarithm of the IC50 (pIC50) of 6.16.

Values taken from ChEMBL document CHEMBL5579822, “Targeting cyclin-dependent kinases: From pocket specificity to drug selectivity” (Eur J Med Chem, 2024).
